# How the values were obtained:
# [1] = Three-component miscibility test (mixing in a vial at room temperature and shaking, visual clarity); settings: for Result (miscibility of ketal with water): 50.0% ketal / 50.0% water, no oxybenzone
# Description: The term “miscible” and its variations (“miscibility”, “compatibility”, and the like) are used herein as a synonym for “soluble”, i.e., a mixture of the materials by themselves form a “true” solution, in which one material is molecularly dispersed in the other, or in which one material is dispersed as droplets which have a longest dimension of less than 200 nm, such that the mixture is optically clear. […] A fully miscible alkyl ketal ester is soluble in another material, such as water, at all proportions from 99:1 to 1:99. A partially miscible alkyl ketal ester is immiscible in another material in proportions from greater than 30 parts of the alkyl ketal ester in 70 parts or less of the other material and miscible in other combinations. A sparingly miscible alkyl ketal ester is immiscible in another material or miscible in another material to the extent of less than 10 parts in 90 parts of the other material. […] Unless stated otherwise, miscibility is assessed at 25° C. […] By “macroscopically uniform,” it is meant that the formulation is uniform when viewed at a length scale of at least 10 micrometers.
# In these tests, clear mixtures as observed without magnification from a distance of, e.g., 0.3 meters are considered to be “miscible,” whereas cloudy or phase separated mixtures are considered to be “immiscible.” […]
# Three-component mixtures of ethyl-LGK, ethanol, and avobenzone were prepared by mixing the materials at various proportions at room temperature in a vial and shaking. […]
# Three-component mixtures of ethyl-LGK, water, and oxybenzone were prepared by mixing the materials at various proportions at room temperature in a vial and shaking. […]
# Three-component mixtures of Et-LGK, water, and phenoxyethanol were prepared by mixing the materials at various proportions at room temperature in a vial and shaking.
# Three-component mixtures of N,N-diethyl-m-toluamide (DEET), ethyl-LGK, and water were prepared by mixing the materials at various proportions at room temperature in a vial and shaking.
# [2] = Miscibility of alkyl ketal esters with water and organic compounds; type: physicochemical; settings: for dissolves or is miscible with organic compounds to the extent of: organic compounds as listed in the block (alcohols, esters, oils, solvents), 80 parts of the ketal
# Procedure: Unless stated otherwise, miscibility is assessed at 25° C.
# [3] = Solubility of active agents in neat alkyl ketal esters (dissolution, storage at room temperature); settings: for % solids in Et-LGK that did not (completely) dissolve or precipitated at room temperature: partially dissolved or precipitated on room temperature storage; for solubility in many alkyl ketal esters: such as ethyl-LGK and ethyl-LPK; for % solids dissolved in Bu-LGK with heat, no precipitation: dissolved at 50-80° C., still soluble after 24 hours at room temperature where stated; for % solids dissolved in Et-LPK at room temperature, no precipitation: still soluble after 24 hours / 1 day at room temperature where stated; for % solids dissolved in Et-LPK with heat, no precipitation: dissolved at 50-80° C. or with heat, still soluble after storage at room temperature (24 hours to 5 days)
# [4] = Clarity of model hand sanitizer (isopropyl myristate / water / ethanol / ethyl-LGK); type: physicochemical
# Description: Thus, a formulation with 30 parts isopropyl myristate, 10 parts water, and 60 parts ethanol was cloudy. […] In either case, the potential for dryness increases due to reduction in emollient or increase in ethanol. […] This formulation retained the balance of emollient and ethanol, while still providing hydration through the presence of water. Alternatively, a portion of the ethanol can be replaced with Et-LGK without sacrificing clarity, even at higher water levels. […] This reduced ethanol formulation was less drying.
# [5] = solvent Et-LGK, still soluble after storage at room temperature (24 hours to 5 days) where stated
smiles,measurement,setting,value
COC(=O)CCC1(C)OCC(CO)O1 (stereo not drawn) [methyl-LGK],Result (miscibility of ketal with water),[1],Miscible
same,miscible with water,[2]; 25° C. unless stated otherwise,in all proportions
O=C(OOC(=O)c1ccccc1)c1ccccc1 [Benzoyl peroxide],"% solids dissolved in Et-LGK with heat, no precipitation","[3]; solvent Et-LGK, dissolved at 35-80° C., still soluble after storage at room temperature (24 hours to 5 days) where stated",5%
same,% solids in Et-LGK that did not (completely) dissolve or precipitated at room temperature,"[3]; solvent Et-LGK, insoluble",9.5%
same,solubility in many alkyl ketal esters,[3],lower solubilities
CCCCOC(=O)CCC1(C)OCC(C)O1 (stereo not drawn) [n-butyl-LPK],miscible with water to the extent of,[2]; 25° C. unless stated otherwise,about 1 part per 99 parts water
same,dissolves or is miscible with organic compounds to the extent of,[2],at least 20 parts of the organic compound in 80 parts
CCOC(=O)CC1(C)OCC(CO)O1 (stereo not drawn) [Et-AcAcGK],Result (miscibility of ketal with water),[1],Miscible
same,miscible with water,[2]; 25° C. unless stated otherwise,in all proportions
CCOC(=O)CCC1(C)OCC(C)O1 (stereo not drawn) [ethyl-LPK],miscible in water to the extent of,[2]; 25° C. unless stated otherwise,2.5 parts in 97.5 parts of water
same,dissolves or is miscible with organic compounds to the extent of,[2],at least 20 parts of the organic compound in 80 parts
"CCCOC(=O)c1ccc(O)cc1 [propyl paraben, Propyl paraben]",level of miscibility in Et-LGK by itself,[1],≤ 24%
same,level at which by itself immiscible in water,[1]; no ketal,< 1 % by weight
"O=C(O)c1ccccc1O [salicylic acid, Salicylic acid]","% solids dissolved in Bu-LGK with heat, no precipitation",[3]; solvent Bu-LGK,10%
same,% solids in Et-LGK that did not (completely) dissolve or precipitated at room temperature,"[3]; solvent Et-LGK, insoluble",20.8%
same,"% solids dissolved in Et-LGK at room temperature, no precipitation",[3]; [5],15%
same,% solids in Et-LPK that did not (completely) dissolve or precipitated at room temperature,"[3]; solvent Et-LPK, insoluble, not completely dissolved or precipitated on room temperature storage",14.3%
same,"% solids dissolved in Et-LPK at room temperature, no precipitation",[3]; solvent Et-LPK,11%
CCOC(=O)CCC1(C)OCCO1 [ethyl-LEK],miscible in water to the extent of,[2]; 25° C. unless stated otherwise,5 parts per 95 parts of water by weight
"OCCOc1ccccc1 [phenoxyethanol, Phenoxyethanol]",amount dissolved / solubilized by Et-LGK/water cosolvent mixtures,[1],~50 % by weight
CC1=C(/C=C/C(C)=C/C=C/C(C)=C/C(=O)O)C(C)(C)CCC1 [Retinoic acid],% solids soluble in Et-LPK at 80° C.,"[3]; solvent Et-LPK, 80° C.",1.88%
same,solubility in many alkyl ketal esters,[3],lower solubilities
Oc1ccc(C=Cc2cc(O)cc(O)c2)cc1 [Resveratrol],"% solids dissolved in Bu-LGK with heat, no precipitation",[3]; solvent Bu-LGK,0.5%
same,"% solids dissolved in Et-LGK at room temperature, no precipitation",[3]; [5],1%
same,"% solids dissolved in Et-LPK with heat, no precipitation",[3]; solvent Et-LPK,0.5%
same,solubility in many alkyl ketal esters,[3],lower solubilities
COc1cc2c(cc1O)CCC(C)(C)O2 [Dimethylmethoxy Chromanol],"% solids dissolved in Bu-LGK at room temperature, no precipitation","[3]; solvent Bu-LGK, still soluble after 24 hours / 1 day at room temperature",2.5%
same,"% solids dissolved in Et-LGK at room temperature, no precipitation",[3]; [5],2.5%
same,"% solids dissolved in Et-LPK at room temperature, no precipitation",[3]; solvent Et-LPK,2.5%
CCCCCCCCCCCCCC(=O)OC(C)C [isopropyl myristate],clarity of formulation,"[4]; 27 parts isopropyl myristate, 9 parts of water, 9 parts of ethyl-LGK and 55 parts of ethanol",clear solution
same,clarity of formulation,"[4]; 30 parts isopropyl myristate, 5 parts water, 5 parts ethyl-LGK and 60 parts ethanol",clear solution
same,clarity of formulation,"[4]; 30 parts isopropyl myristate, 10 parts water, 60 parts ethanol",cloudy
same,clarity of formulation,"[4]; no ketal, emollient level dropped to 22% at the same water level, or to 27% with an increase in ethanol",clear solution
"COc1cc(CCC(=O)CC(=O)CCc2ccc(O)c(OC)c2)ccc1O [Tetrahydrocurcuminoids, tetrahydrodiferuloylmethane]","% solids dissolved in Bu-LGK with heat, no precipitation",[3]; solvent Bu-LGK,5%
same,"% solids dissolved in Et-LGK at room temperature, no precipitation",[3]; [5],20%
same,"% solids dissolved in Et-LPK with heat, no precipitation",[3]; solvent Et-LPK,5%
